Experimental data taken from US11866450B2, “Modulators of Cystic Fibrosis Transmembrane Conductance regulator, pharmaceutical compositions, methods of treatment, and process for making the modulators” (priority 2018, dated 2024).

Biological target: CFTR-mediated chloride transport (Homo sapiens, UniProt P13569)
Format: cell-based
Conditions: enteroid cells incubated with test compound 18-24 hours, acute 10 μM forskolin and 300 nM Compound III; for Max. Activity: % of chloride transport with 3 μM Compound A, 3 μM Compound II and 300 nM acute Compound III triple combination control
How it was run: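 Human intestinal enteroid cells incubated with compound 18–24 h at 37° C., then membrane potential dye (FLIPR) read 15 min after chloride-free stimulation with 10 μM forskolin, 100 μM IBMX and 300 nM Compound III. AUC expressed as % of triple-combination control (3 μM Compound A, 3 μM Compound II, 300 nM Compound III).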

CFTR-mediated chloride transport, sequence (P13569 whole entry, looked up): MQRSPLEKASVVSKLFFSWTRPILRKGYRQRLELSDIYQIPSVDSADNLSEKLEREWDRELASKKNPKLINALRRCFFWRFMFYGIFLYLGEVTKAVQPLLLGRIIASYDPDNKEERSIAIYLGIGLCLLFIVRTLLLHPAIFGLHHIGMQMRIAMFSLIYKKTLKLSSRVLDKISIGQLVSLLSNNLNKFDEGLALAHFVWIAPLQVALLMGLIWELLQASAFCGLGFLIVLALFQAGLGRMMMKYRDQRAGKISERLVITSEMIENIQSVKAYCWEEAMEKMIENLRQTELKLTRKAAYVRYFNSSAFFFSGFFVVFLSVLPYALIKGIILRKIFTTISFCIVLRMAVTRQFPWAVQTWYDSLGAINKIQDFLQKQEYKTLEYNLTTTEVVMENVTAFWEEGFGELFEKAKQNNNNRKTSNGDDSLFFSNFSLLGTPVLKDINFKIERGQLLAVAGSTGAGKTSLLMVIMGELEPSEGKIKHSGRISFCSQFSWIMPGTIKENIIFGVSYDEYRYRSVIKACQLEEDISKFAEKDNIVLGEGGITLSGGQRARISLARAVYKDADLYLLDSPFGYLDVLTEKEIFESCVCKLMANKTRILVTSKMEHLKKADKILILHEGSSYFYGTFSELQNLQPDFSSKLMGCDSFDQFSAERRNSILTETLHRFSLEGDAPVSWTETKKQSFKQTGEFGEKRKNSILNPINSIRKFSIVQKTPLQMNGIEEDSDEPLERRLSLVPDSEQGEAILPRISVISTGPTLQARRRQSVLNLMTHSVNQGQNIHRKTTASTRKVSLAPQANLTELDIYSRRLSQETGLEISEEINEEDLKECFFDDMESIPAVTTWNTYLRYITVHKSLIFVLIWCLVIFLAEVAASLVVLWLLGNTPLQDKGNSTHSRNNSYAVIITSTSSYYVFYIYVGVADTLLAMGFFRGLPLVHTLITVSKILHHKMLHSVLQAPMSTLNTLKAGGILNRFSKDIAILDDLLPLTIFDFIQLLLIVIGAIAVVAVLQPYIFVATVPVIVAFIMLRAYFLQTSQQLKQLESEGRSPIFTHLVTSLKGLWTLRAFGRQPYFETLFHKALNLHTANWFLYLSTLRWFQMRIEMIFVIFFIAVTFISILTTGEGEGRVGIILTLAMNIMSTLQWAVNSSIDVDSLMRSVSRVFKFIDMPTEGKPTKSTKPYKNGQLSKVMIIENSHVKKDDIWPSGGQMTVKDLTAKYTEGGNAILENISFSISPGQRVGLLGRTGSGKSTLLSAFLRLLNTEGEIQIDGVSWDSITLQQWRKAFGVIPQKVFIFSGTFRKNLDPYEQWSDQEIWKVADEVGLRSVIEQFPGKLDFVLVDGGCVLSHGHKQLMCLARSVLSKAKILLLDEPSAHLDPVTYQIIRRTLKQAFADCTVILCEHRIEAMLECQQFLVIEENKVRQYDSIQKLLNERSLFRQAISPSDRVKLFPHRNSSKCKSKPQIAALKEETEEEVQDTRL

| SMILES | EC50 [nM] | Max. Activity |
| --- | --- | --- |
| CC1(C)C[C@@H]2CCCNc3cccc(n3)S(=O)(=O)NC(=O)c3ccc(-n4ccc(OCC(=O)C5C6(CC6)C56CC6)n4)nc3N1C2 [Compound 258, (14S)-8-[3-(2-{Dispiro[2.0.2.1]heptan-7-yl}-2-oxoethoxy)-1H-pyrazol-1-yl]-12,12-dimethyl-2λ^6-thia-3,9,11,18,23-pentaazatetracyclo[17.3.1.111,14.05,10]tetracosa-1(22),5,7,9,19(23),20-hexaene-2,2,4-trione] | < 1000 | +++ (+++ is >60%) |
| C[C@@H]1CC[C@H]2CN(c3nc(-n4ccc(OCCC5(C(F)(F)F)CC5)n4)ccc3C(=O)NS(=O)(=O)c3cccc(n3)N1)C(C)(C)C2 (single isomer, unassigned) [Compound 61, 12,12,17-trimethyl-8-(3-{2-[1-(trifluoromethyl)cyclopropyl]ethoxy}-1H-pyrazol-1-yl)-2λ^6-thia-3,9,11,18,23-pentaazatetracyclo[17.3.1.111,14.05,10]tetracosa-1(23),5(10),6,8,19,21-hexaene-2,2,4-trione] | < 1000 | +++ (+++ is >60%) |
| CC1(C)C[C@H]2CCCCn3ccc(n3)S(=O)(=O)NC(=O)c3ccc(-n4ccc(OCCCC5(C(F)(F)F)CC5)n4)nc3N1C2 (single isomer, unassigned) [Compound 277, 21,21-dimethyl-4-(3-{3-[1-(trifluoromethyl)cyclopropyl]propoxy}-1H-pyrazol-1-yl)-10λ^6-thia-1,3,9,14,23-pentaazatetracyclo[17.2.1.111,14.02,7]tricosa-2,4,6,11(23),12-pentaene-8,10,10-trione] | > 3000 | + (+ is <30%) |
| CC1(C)C[C@@H]2CCCNc3nc(ccc3O)S(=O)(=O)NC(=O)c3ccc(-n4ccc(OCCC5C6(CC6)C56CC6)n4)nc3N1C2 [Compound 254, (14S)-8-[3-(2-{dispiro[2.0.2.1]heptan-7-yl}ethoxy)-1H-pyrazol-1-yl]-20-hydroxy-12,12-dimethyl-2λ^6-thia-3,9,11,18,23-pentaazatetracyclo[17.3.1.111,14.05,10]tetracosa-1(23),5,7,9,19,21-hexaene-2,2,4-trione] | < 1000 | ++ (++ is 30-60%) |
| CC1(C)C[C@H]2CCNc3cccc(n3)S(=O)(=O)NC(=O)c3ccc(-n4ccc(OCC5(C(F)(F)F)CC5)n4)nc3N1C2 (single isomer, unassigned) [Compound 5, 7,7-dimethyl-11-(3-{[1-(trifluoromethyl)cyclopropyl]methoxy}-1H-pyrazol-1-yl)-17λ^6-thia-2,8,10,16,22-pentaazatetracyclo[16.3.1.1(5,8).0(9,14)]tricosa-1(21),9(14),10,12,18(22),19-hexaene-15,17,17-trione] | < 1000 | +++ (+++ is >60%) |
| CC1(C)C[C@@H]2CN1c1nc(-n3ccc(OCCC(C4CC4)C4CC4)n3)ccc1C(=O)NS(=O)(=O)c1cccc(n1)NCCO2 (single isomer, unassigned) [Compound 162, 8-[3-(3,3-dicyclopropylpropoxy)-1H-pyrazol-1-yl]-12,12-dimethyl-15-oxa-2λ^6-thia-3,9,11,18,23-pentaazatetracyclo[17.3.1.111,14.05,10]tetracosa-1(23),5,7,9,19,21-hexaene-2,2,4-trione] | 1000 to 3000 | ++ (++ is 30-60%) |
| Cc1c2cnn1CCC[C@@H]1CN(c3nc(-n4ccc(OCCC5(C(F)(F)F)CC5)n4)ccc3C(=O)NS2(=O)=O)C(C)(C)C1 (single isomer, unassigned) [Compound 111] | < 1000 | +++ (+++ is >60%) |
| CC1(C)C[C@@H]2CN1c1nc(-n3ccc(OCCC4(C(F)(F)F)CC4)n3)ccc1C(=O)NS(=O)(=O)c1ccn(n1)CCO2 (single isomer, unassigned) [Compound 167, 20,20-dimethyl-4-(3-{2-[1-(trifluoromethyl)cyclopropyl]ethoxy}-1H-pyrazol-1-yl)-17-oxa-10λ^6-thia-1,3,9,14,22-pentaazatetracyclo[16.2.1.111,14.02,7]docosa-2(7),3,5,11(22),12-pentaene-8,10,10-trione] | < 1000 | ++ (++ is 30-60%) |
| CC1(C)C[C@H]2CCCCNc3ccc(cn3)S(=O)(=O)NC(=O)c3ccc(-n4ccc(OCCC5(C(F)(F)F)CC5)n4)nc3N1C2 (single isomer, unassigned) [Compound 68, 12,12-dimethyl-8-(3-{2-[1-(trifluoromethyl)cyclopropyl]ethoxy}-1H-pyrazol-1-yl)-2λ^6-thia-3,9,11,19,21-pentaazatetracyclo[18.2.2.111,14.05,10]pentacosa-1(23),5,7,9,20(24),21-hexaene-2,2,4-trione] | < 1000 | ++ (++ is 30-60%) |
| CC(C)(C)CCN1CCN(c2ccc3c(n2)N2CC(CCCn4ccc(n4)S(=O)(=O)NC3=O)CC2(C)C)C1=O (centres unmarked) [Compound 168, 4-[3-(3,3-dimethylbutyl)-2-oxoimidazolidin-1-yl]-20,20-dimethyl-10λ^6-thia-1,3,9,14,22-pentaazatetracyclo[16.2.1.111,14.02,7]docosa-2,4,6,11(22),12-pentaene-8,10,10-trione] | > 3000 | + (+ is <30%) |
| CC1(C)CC2CCCNc3cccc(n3)S(=O)(=O)NC(=O)c3ccc(-n4ccc(OCC5C6(CC6)C56CC6)n4)nc3N1C2 (racemic) [Compound 105, 8-[3-({dispiro[2.0.2.1]heptan-7-yl}methoxy)-1H-pyrazol-1-yl]-12,12-dimethyl-2λ^6-thia-3,9,11,18,23-pentaazatetracyclo[17.3.1.111,14.05,10]tetracosa-1(22),5,7,9,19(23),20-hexaene-2,2,4-trione] | < 1000 | +++ (+++ is >60%) |
| CC1(C)C[C@H]2CCCn3ccc(n3)S(=O)(=O)NC(=O)c3ccc(-n4ccc(OCCC5C(C)(C)C5(C)C)n4)nc3N1C2 (single isomer, unassigned) [Compound 207, 20,20-dimethyl-4-{3-[2-(2,2,3,3-tetramethylcyclopropyl)ethoxy]-1H-pyrazol-1-yl}-10λ^6-thia-1,3,9,14,22-pentaazatetracyclo[16.2.1.111,14.02,7]docosa-2(7),3,5,11(22),12-pentaene-8,10,10-trione] | < 1000 | +++ (+++ is >60%) |
| CC1(C)C[C@H]2CCCNc3cccc(n3)S(=O)(=O)NC(=O)c3ccc(-n4ccc(OCCC5(C(F)(F)F)CC5)n4)nc3N1C2 [Compound 13, (14R)-12,12-dimethyl-8-(3-{2-[1-(trifluoromethyl)cyclopropyl]ethoxy}-1H-pyrazol-1-yl)-2λ^6-thia-3,9,11,18,23-pentaazatetracyclo[17.3.1.111,14.05,10]tetracosa-1(23),5,7,9,19,21-hexaene-2,2,4-trione] | 1000 to 3000 | + (+ is <30%) |
| CC1(C)C[C@H]2CCCCn3cc(cn3)S(=O)(=O)NC(=O)c3ccc(-n4ccc(OCCC5(C(F)(F)F)CC5)n4)nc3N1C2 (single isomer, unassigned) [Compound 134, 21,21-Dimethyl-4-(3-{2-[1-(trifluoromethyl)cyclopropyl]ethoxy}-1H-pyrazol-1-yl)-10λ^6-thia-1,3,9,13,14-pentaazatetracyclo[17.2.1.111,14.02,7]tricosa-2,4,6,11(23),12-pentaene-8,10,10-trione] | < 1000 | + (+ is <30%) |
| CC1(C)C[C@H]2CCNc3cccc(n3)S(=O)(=O)NC(=O)c3ccc(-n4ccc(OCCCC5(C(F)(F)F)CC5)n4)nc3N1C2 (single isomer, unassigned) [Compound 235, 7,7-dimethyl-11-(3-{3-[1-(trifluoromethyl)cyclopropyl]propoxy}-1H-pyrazol-1-yl)-17λ^6-thia-2,8,10,16,22-pentaazatetracyclo[16.3.1.15,8.09,14]tricosa-1(22),9,11,13,18,20-hexaene-15,17,17-trione] | < 1000 | +++ (+++ is >60%) |
| CC1(C)C[C@@H]2CCCNc3cccc(n3)S(=O)(=O)NC(=O)c3ccc(-n4ccc(OCC[C@@H](O)C5(C(F)(F)F)CC5)n4)nc3N1C2 (single isomer, unassigned) [Compound 297] | < 1000 | +++ (+++ is >60%) |
| CC1(C)C[C@H]2CCCCn3cc(cn3)S(=O)(=O)NC(=O)c3ccc(-n4ccc(OCCC5(C(F)(F)F)CC5)n4)nc3N1C2 (single isomer, unassigned) [Compound 135, 21,21-dimethyl-4-(3-{2-[1-(trifluoromethyl)cyclopropyl]ethoxy}-1H-pyrazol-1-yl)-10λ^6-thia-1,3,9,13,14-pentaazatetracyclo[17.2.1.111,14.02,7]tricosa-2,4,6,11(23),12-pentaene-8,10,10-trione] | < 1000 | +++ (+++ is >60%) |
| CC1(C)C[C@@H]2CCCNc3cccc(n3)S(=O)(=O)NC(=O)c3ccc(N4CCN(C5CCCCC5)C4=O)nc3N1C2 [Compound 200, (14S)-8-(3-cyclohexyl-2-oxoimidazolidin-1-yl)-12,12-dimethyl-2λ^6-thia-3,9,11,18,23-pentaazatetracyclo[17.3.1.111,14.05,10]tetracosa-1(22),5,7,9,19(23),20-hexaene-2,2,4-trione] | < 1000 | + (+ is <30%) |
| CN1CCC[C@H]2CN(c3nc(-n4ccc(OCCC5(C(F)(F)F)CC5)n4)ccc3C(=O)NS(=O)(=O)c3cccc1n3)C(C)(C)C2 (single isomer, unassigned) [Compound 139, 12,12,18-trimethyl-8-(3-{2-[1-(trifluoromethyl)cyclopropyl]ethoxy}-1H-pyrazol-1-yl)-2λ^6-thia-3,9,11,18,23-pentaazatetracyclo[17.3.1.111,14.05,10]tetracosa-1(23),5(10),6,8,19,21-hexaene-2,2,4-trione] | < 1000 | +++ (+++ is >60%) |
